One molecule from patent US20060135768A1, “Synthesis for hydroxyalkylated heterocyclic bases” (RIBAPHARM INC., priority 2002, published 2006) can be followed below.

Values after ≈ are worked out from the molar mass of the structure shown.

The data set in a line: Solubility of the heterocyclic base (adenine) in reaction solvents. Type of data set: physicochemical.

For the molecule `Nc1ncnc2nc[nH]c12` [adenine], the “Solubility at 150° C.” value is, setting by setting: (solvent DEF) 13.9 mg/mL (≈ 103 mM); (solvent DMA) 37.0 mg/mL (≈ 274 mM); (solvent DMF) 29.0 mg/mL (≈ 215 mM). The “Solubiity at RT” value was 1.36 mg/mL (solvent DEF), 4.00 mg/mL (solvent DMA) and 2.90 mg/mL (solvent DMF).
